Experimental data taken from patent publication US7829572B2 (Pfizer Inc, priority 2006, dated 2010).

molecular target: T1, calcium receptor (CasR) (Homo sapiens, UniProt P41180); assay: FLIPR Assay for Evaluating the Potency and Selectivity of Test Compounds; type: cell-based; conditions: HEK 293 cells expressing CasR; 30 minutes pre-incubation; stimulation by 1.7 mM Ca2+; read 42 seconds after stimulation
T1 construct: expressed in transfected cells; host or cells: HEK 293
T1 sequence (P41180 20-1078): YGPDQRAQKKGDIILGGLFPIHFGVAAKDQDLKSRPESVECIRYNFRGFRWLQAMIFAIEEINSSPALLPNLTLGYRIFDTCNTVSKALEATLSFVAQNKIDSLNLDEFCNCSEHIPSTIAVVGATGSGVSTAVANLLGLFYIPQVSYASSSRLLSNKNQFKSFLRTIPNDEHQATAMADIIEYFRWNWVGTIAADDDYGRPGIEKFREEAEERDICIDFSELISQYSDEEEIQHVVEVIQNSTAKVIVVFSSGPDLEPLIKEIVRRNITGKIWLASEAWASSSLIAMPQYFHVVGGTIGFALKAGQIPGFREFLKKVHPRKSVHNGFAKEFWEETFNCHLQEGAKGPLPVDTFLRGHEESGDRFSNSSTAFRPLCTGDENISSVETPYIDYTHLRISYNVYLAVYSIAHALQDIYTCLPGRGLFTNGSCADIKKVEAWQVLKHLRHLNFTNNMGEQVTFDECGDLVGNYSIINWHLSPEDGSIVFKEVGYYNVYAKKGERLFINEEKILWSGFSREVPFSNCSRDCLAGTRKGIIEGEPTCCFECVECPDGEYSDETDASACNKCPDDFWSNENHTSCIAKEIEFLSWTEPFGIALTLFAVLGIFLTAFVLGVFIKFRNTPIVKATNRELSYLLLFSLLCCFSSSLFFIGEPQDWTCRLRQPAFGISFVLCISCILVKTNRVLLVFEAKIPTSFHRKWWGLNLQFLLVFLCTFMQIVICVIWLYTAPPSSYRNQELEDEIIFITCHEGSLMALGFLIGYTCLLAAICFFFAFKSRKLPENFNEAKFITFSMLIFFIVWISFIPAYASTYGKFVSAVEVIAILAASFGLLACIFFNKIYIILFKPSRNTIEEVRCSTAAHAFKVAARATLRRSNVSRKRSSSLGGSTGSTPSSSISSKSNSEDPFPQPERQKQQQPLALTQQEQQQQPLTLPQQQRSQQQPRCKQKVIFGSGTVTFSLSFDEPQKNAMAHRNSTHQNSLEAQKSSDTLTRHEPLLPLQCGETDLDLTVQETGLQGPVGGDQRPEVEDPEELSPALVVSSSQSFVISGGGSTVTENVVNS
Excerpt: FLIPR Assay for Evaluating the Potency and Selectivity of Test Compounds
Human kidney cell (HEK 293) expressing the calcium receptor (CasR) are used to detect antagonists of the receptor using Fluorometric imaging plate reader (FLIPR, Molecular Devices, Sunnyvale Calif.). Receptor activation by extracellular calcium results in the release of calcium from intracellular stores into the cytosol. A fluorescent indicator (Fluo-4) is internalized by the cells from growth media and interacts with calcium released into the cytosol to provide a means of quantifying intracellular Ca^2+ levels and receptor agonism/antagonism. Fluorescence intensity is detected by the FLIPR CCD camera and traced as a function of time. Potential antagonists are identified by their ability to decrease this fluorescent response.
Prior to the addition of test compound cells are washed with a 10 mM HEPES buffer solution. The test compound, for example the compound of Example 1, is added at various doses (from 1 µM to 3 nM) and pre-incubated with cells for 30 minutes followed by stimulation of the CasR by the addition of 1.7 mM Ca^2+. IC50 values are based on the ability of the cells to inhibit the Ca^2+ induced increase in intracellular Ca^2+. Fluorescence signal is read 42 seconds after the stimulation of the CasR by the addition of 1.7 mM Ca^2+.
The following table provides FLIPR IC50 data for the specified Examples. The IC50s are reported as micromolar concentration with n being the number of times the particular compound was assayed.

Compound | IC50 [µM]
C[C@H](Cc1ccccc1)n1c(C2CCCC2)nc2ccnc(C(F)(F)F)c2c1=O [Example 57, (R)-2-cyclopentyl-3-(1-phenylpropan-2-yl)-5-(trifluoromethyl)pyrido[4,3-d]pyrimidin-4(3H)-one] | 1.67
O=c1c2c(OC3CCC3)nccc2nc(-c2ccccc2O)n1CCc1ccccc1 [Example 33, 5-Cyclobutyloxy-2-(2-hydroxy-phenyl)-3-phenethyl-3H-pyrido[4,3-d]pyrimidin-4-one] | 0.52
COc1ccc(F)cc1CCn1c(-c2ncccc2O)nc2ccnc(C(F)(F)F)c2c1=O [Example 41, 3-(5-fluoro-2-methoxyphenethyl)-2-(3-hydroxypyridin-2-yl)-5-(trifluoromethyl)pyrido[4,3-d]pyrimidin-4(3H)-one] | 0.25
O=c1c2c(C(F)(F)F)nccc2nc(-c2ccccc2O)n1CCc1ccccc1F [Example 7] | 0.13
CN(C)c1nccc2nc(-c3ccccc3O)n(CCc3ccccc3)c(=O)c12 [Example 21, 5-Dimethylamino-2-(2-hydroxy-phenyl)-3-phenethyl-3H-pyrido[4,3-d]pyrimidin-4-one] | 13.8
Nc1cccnc1-c1nc2ccnc(C(F)(F)F)c2c(=O)n1CCc1ccccc1 [Example 63, 2-(3-aminopyridin-2-yl)-3-phenethyl-5-(trifluoromethyl)pyrido[4,3-d]pyrimidin-4(3H)-one] | 0.77
COc1nccc2nc(-c3ccccc3O)n(CCc3ccccc3)c(=O)c12 [Example 30, 2-(2-Hydroxy-phenyl)-5-methoxy-3-phenethyl-3H-pyrido[4,3-d]pyrimidin-4-one] | 1.17
O=c1c2c(C(F)(F)F)nccc2nc(-c2ncccc2O)n1CCc1cccc(F)c1F [Example 40, 3-(2,3-difluorophenethyl)-2-(3-hydroxypyridin-2-yl)-5-(trifluoromethyl)pyrido[4,3-d]pyrimidin-4(3H)-one] | 0.46
O=c1c2c(C(F)(F)F)nccc2nc(-c2ccccc2O)n1CCc1cccc(F)c1 [Example 8] | 0.09
COc1cccc(F)c1CCn1c(-c2ncccc2O)nc2ccnc(C(F)(F)F)c2c1=O [Example 42, 3-(2-fluoro-6-methoxyphenethyl)-2-(3-hydroxypyridin-2-yl)-5-(trifluoromethyl)pyrido[4,3-d]pyrimidin-4(3H)-one] | 1.12
O=c1c2c(C(F)(F)F)nccc2nc(-c2cccc(F)c2O)n1CCc1cccc(F)c1 [Example 11, 2-(3-Fluoro-2-hydroxy-phenyl)-3-[2-(3-fluoro-phenyl)-ethyl]-5-trifluoromethyl-3H-pyrido[4,3-d]pyrimidin-4-one] | 0.46
O=c1c2c(C(F)(F)F)nccc2nc(-c2cccc(F)c2O)n1CCc1ccccc1F [Example 9, 2-(3-Fluoro-2-hydroxy-phenyl)-3-[2-(2-fluoro-phenyl)-ethyl]-5-trifluoromethyl-3H-pyrido[4,3-d]pyrimidin-4-one] | 0.29
O=c1c2c(N3CCOCC3)nccc2nc(-c2ccccc2O)n1CCc1ccccc1 [Example 22, 2-(2-Hydroxy-phenyl)-5-morpholin-4-yl-3-phenethyl-3H-pyrido[4,3-d]pyrimidin-4-one] | > 100
CCC(Cc1ccccc1F)n1c(-c2ncccc2O)nc2ccnc(C(F)(F)F)c2c1=O (centres unmarked) [Example 44, 3-(1-(2-fluorophenyl)butan-2-yl)-2-(3-hydroxypyridin-2-yl)-5-(trifluoromethyl)pyrido[4,3-d]pyrimidin-4(3H)-one] | 2.44
O=c1c2c(C(F)(F)F)nccc2nc(-c2ccccc2O)n1CCc1ccccc1 [Example 1, 2-(2-Hydroxy-phenyl)-3-phenethyl-5-trifluoromethyl-3H-pyrido[4,3-d]pyri-midin-4-one] | 0.05
O=c1c2c(Cc3ccccc3)nccc2nc(-c2ccccc2O)n1CCc1ccccc1 [Example 25, 5-Benzyl-2-(2-hydroxy-phenyl)-3-phenethyl-3H-pyrido[4,3-d]pyrimidin-4-one] | 3.01
O=C(Nc1cccnc1-c1nc2ccnc(C(F)(F)F)c2c(=O)n1CCc1ccccc1F)C(F)(F)F [Example 72, N-(2-(3-(2-fluorophenethyl)-4-oxo-5-(trifluoromethyl)-3,4-dihydropyrido[4,3-d]pyrimidin-2-yl)pyridin-3-yl)-2,2,2-trifluoroacetamide] | 0.94
CS(=O)(=O)Nc1cccnc1-c1nc2ccnc(C(F)(F)F)c2c(=O)n1CCc1ccccc1 [Example 64, N-(2-(4-oxo-3-phenethyl-5-(trifluoromethyl)-3,4-dihydropyrido[4,3-d]pyrimidin-2-yl)pyridin-3-yl)methanesulfonamide] | 61.8
O=c1c2c(C(F)(F)F)nccc2nc(-c2cscn2)n1CCC1CCCCC1 [Example 61, 3-(2-cyclohexylethyl)-2-(thiazol-4-yl)-5-(trifluoromethyl)pyrido[4,3-d]pyrimidin-4(3H)-one] | 0.5
COc1cccc(CCn2c(-c3ncccc3O)nc3ccnc(C(F)(F)F)c3c2=O)c1F [Example 70, 3-(2-fluoro-3-methoxyphenethyl)-2-(3-hydroxypyridin-2-yl)-5-(trifluoromethyl)pyrido[4,3-d]pyrimidin-4(3H)-one] | 61.9
C[C@H](Cc1ccccc1)n1c(-c2ncc[nH]2)nc2ccnc(C(F)(F)F)c2c1=O [Example 51, (R)-2-(1H-imidazol-2-yl)-3-(1-phenylpropan-2-yl)-5-(trifluoromethyl)pyrido[4,3-d]pyrimidin-4(3H)-one] | 0.11
C[C@H](Cc1ccccc1)n1c(-c2cscn2)nc2ccnc(C(F)(F)F)c2c1=O [Example 53, (R)-3-(1-phenylpropan-2-yl)-2-(thiazol-4-yl)-5-(trifluoromethyl)pyrido[4,3-d]pyrimidin-4(3H)-one] | 0.26
CC(C)Oc1nccc2nc(-c3ccccc3O)n(CCc3ccccc3)c(=O)c12 [Example 35, 2-(2-Hydroxy-phenyl)-5-isopropoxy-3-phenethyl-3H-pyrido[4,3-d]pyrimidin-4-one] | 0.38
C[C@H](Cc1ccccc1)n1c(-c2ccccc2O)nc2ccnc(C(F)(F)F)c2c1=O [Example 4a, (R)-2-(2-Hydroxy-phenyl)-3-(1-methyl-2-phenyl-ethyl)-5-trifluoromethyl-3H-pyrido[4,3-d]pyrimidin-4-one] | 0.06
CC(C)Nc1nccc2nc(-c3ccccc3O)n(CCc3ccccc3)c(=O)c12 [Example 17, 2-(2-Hydroxy-phenyl)-5-isopropylamino-3-phenethyl-3H-pyrido[4,3-d]pyrimidin-4-one] | 11
COc1ccccc1CCn1c(-c2cscn2)nc2ccnc(C(F)(F)F)c2c1=O [Example 60, 3-(2-methoxyphenethyl)-2-(thiazol-4-yl)-5-(trifluoromethyl)pyrido[4,3-d]pyrimidin-4(3H)-one] | 23.2
O=c1c2c(C(F)(F)F)nccc2nc(C2CCCC2)n1CCc1ccccc1 [Example 59, 2-cyclopentyl-3-phenethyl-5-(trifluoromethyl)pyrido[4,3-d]pyrimidin-4(3H)-one] | 7.79
N#Cc1ccccc1-c1nc2cccc(C(F)(F)F)c2c(=O)n1CCc1ccccc1F [Example 71, 2-(3-(2-fluorophenethyl)-4-oxo-5-(trifluoromethyl)-3,4-dihydroquinazolin-2-yl)benzonitrile] | 0.42
Nc1scnc1-c1nc2ccnc(C(F)(F)F)c2c(=O)n1CCc1ccccc1 [Example 78, 2-(5-aminothiazol-4-yl)-3-phenethyl-5-(trifluoromethyl)pyrido[4,3-d]pyrimidin-4(3H)-one] | 9.83
